Legend:
[1] = test system: "spike and wave" discharges in epileptic rats (male Wistar rats of the Strasbourg colony); experiment: Inhibition of spike and wave discharges in epileptic rats (absence epilepsy model); type: in vivo; conditions: epileptic rat model; for minimal effective dose: dose-dependent, read-out: dose that reduces the spike and wave discharges
From the text: Synchronous "spike and wave" discharges (SWD; frontopariental cortex; 7-8 Hz; 300-1000 μV, duration 0.5 to 40 s, mean value=6.0±3.4 s) and frequently myoclonia facialis accompany a cessation of behaviour. These absence-like conditions occur spontaneously and repeatedly. […] In contrast, a strain could be reared in which 100% of the rats are SWD-free (control rats). This pharmacological model is described in Vergnes M., Marescaux C., Micheletti G., Reis J., Depaulis A., Rumbach L. and Warter J. M., Neurosci. Lett. 33. 97-101 (1982).
In this model, for example, the clinically used anti-epileptics ethosuximide, diazepam, trimethadione and sodium valproate in doses≥25 mg/kg (ethosuximide),≥0.5 mg/kg (diazepam) and≥50 mg/kg (trimethadione and sodium valproate) reduce the spike and wave discharges in dose-dependent manner. […] Phenobarbital is effective at from 2.5 to 10 mg/kg and is ineffective at 20 mg/kg. The action of these anti-epileptics on the crises in rats and absences in humans supports the hypothesis that this animal model represents a pharmacological model for absence epilepsy. Its predictive value appears to be at least as good as that of other customary animal models.
The action of GABAB -antagonists was tested on male Wistar rats (300-400 g) of the Strasbourg colony. […] The rats received water and food ad libidum, and the light/dark cycle was 12/12 hours. The rats were anaesthetised with pentobarbital (40 mg/kg i.p.) and implanted bilaterally with 4 stainless steel electrodes (two in the frontal cortex and two in the parietal cortex). The rats were used for experiments no sooner than one week after the operation.
The rats, which were freely mobile, were accommodated in a Plexiglass cage (17×17×28 cm) (one rat per cage), and, after a 15-minute period for adaptation to the new surroundings, the EEG was recorded over a period of 20 minutes (reference period). The reference line for the particular test series is thus obtained. A GABAB -antagonist was then administered and the EEG was recorded over a period of from 120 to 180 minutes. The rats were kept under constant observation during this period and prevented from falling asleep by gentle manual contact.
The test compound was dissolved in 0.9% sodium chloride solution and injected in doses of 50, 100, 200 and 400 mg/kg i.p.. Alternatively, the test compound may be administered in a polyethylene glycol, such as Tween® 80, (2 drops/10 ml of suspension of the test compound in 0.9% sodium chloride solution; the suspension is homogenised at 40° for 10 minutes by means of ultrasound, injection volume: 2 ml/kg) i.p. or by means of a stomach probe p.o.. Test compounds that are soluble with difficulty are advantageously administered in solution in a mixture of dimethyl sulfoxide (not more than 10% by volume) and 0.9% sodium chloride solution or in 45% aqueous hydroxypropyl-β-cyclodextrin solution. Each animal is treated with all doses in a randomised sequence. The time between two treatments should be at least 5 days. The mean values ±SEM of the sum total duration of the "spike and wave" discharges of 6 rats over a period of 20 minutes are recorded.
The sum total duration of the spike and wave discharges (in seconds) is measured for each 20-minute period of the EEG recording. Comparisons between the treatment and the reference period are carried out by means of non-parametric variance analysis of the groups concerned (Friedman test). The control group and the treated groups are compared by means of the Wilcoxon test only when a significant difference between the two groups is found in the Friedmann test. The significances of the differences according to Wilcoxon between doses marked by an asteriks and dose 0 corresponds to p<0,005.

[2] = test system: "spike and wave" discharges induced by phenytoin in epileptic rats; experiment: Antagonism of the spike and wave discharges induced by phenytoin in epileptic rats; type: in vivo, rat
Procedure: (§1) The method and test arrangement correspond to those of Pharmacological Example 1.
3-Aminopropyl(diethoxymethyl)phosphinic acid: Antagonism of the "spike and wave" discharges induced by phenytoin. 3-Aminopropyl(diethoxymethyl)phosphinic acid was administered at time 0, and 20 mg/kg of phenytoin were administered at time 40, in each case i.p..

[3] = test system: "spike and wave" discharges induced by carbamazepine in epileptic rats; experiment: Antagonism of the spike and wave discharges induced by carbamazepine in epileptic rats; type: in vivo, rat
Procedure: as §1
3-Aminopropyl(diethoxymethyl)phosphinic acid: Antagonism of the "spike and wave" discharges induced by carbamazepine. 3-Aminopropyl(diethoxymethyl)phosphinic acid was administered at time 0, and 20 mg/kg of carbamazepine were administered at time 40, in each case i.p..

[4] = test system: "spike and wave" discharges induced by Vigabatrin® in epileptic rats; experiment: Antagonism of the spike and wave discharges induced by Vigabatrin in epileptic rats; type: in vivo, rat
Procedure: as §1
3-Aminopropyl(diethoxymethyl)phosphinic acid: Antagonism of the "spike and wave" discharges induced by Vigabatrin®.3-Aminopropyl(diethoxymethyl)phosphinic acid was administered at time 0, and 20 mg/kg of Vigabatrin® were administered at time 160, in each case i.p..

[5] = test system: "epilepsy-like" discharges of pyramidal cells; experiment: Penicillin-induced epileptic hippocampus section preparation (antagonism to baclofen); type: cell-based
Procedure: The novel GABAB -antagonists according to the invention interact at the GABAB -receptor with IC50 values of approximately 10^-8 M (moles/l) and above in cerebral cortex membranes of rats. […] The compounds according to the invention act as an antagonist to baclofen action at concentrations of from approximately 10 to approximately 100 μM (micromoles/liter). […] At doses of approximately 30 mg/kg, antagonism to the muscle-relaxing action of baclofen occurs, which is measured in the Rotarod model.

Which minimal effective dose [1] does the source give for CCCC(CCC)C(=O)[O-].[Na+] [sodium valproate] here?
The minimal effective dose was ≥ 50 mg/kg.

How did the “effect on the spike and wave discharges (in words)” value (“effect … (in words)” below) [1] turn out when O=C1NC(=O)C(c2ccccc2)(c2ccccc2)N1 [phenytoin, reference compound] was run?
Its value is “ineffective or make the attacks worse at high doses”.

What about the “sum total duration of the spike and wave discharges” value (“sum total duration” for short) ([2]; phenytoin 20 mg/kg i.p. at time 40 alone (antagonist dose 0), period 40-60 min) of the same compound?
The value was 555 ± 24 s.

What about the “sum total duration” value ([2]; phenytoin 20 mg/kg i.p. at time 40 alone (antagonist dose 0), period 60-80 min) of the same compound?
The value was 658 ± 27 s.

What about the “sum total duration” value ([2]; phenytoin 20 mg/kg i.p. at time 40 alone (antagonist dose 0), period 80-100 min) of the same compound?
The value was 562 ± 76 s.

With NC(=O)N1c2ccccc2C=Cc2ccccc21 [carbamazepine, reference compound] as the compound, how does the “effect … (in words)” value [1] read?
The value was “ineffective or make the attacks worse at high doses”.

And the “sum total duration” value ([3]; carbamazepine 20 mg/kg i.p. at time 40 alone (antagonist dose 0), period 40-60 min)?
The value was 636 ± 43 s.

And the “sum total duration” value ([3]; carbamazepine 20 mg/kg i.p. at time 40 alone (antagonist dose 0), period 60-80 min)?
The value was 669 ± 14 s.

What about the “sum total duration” value ([3]; carbamazepine 20 mg/kg i.p. at time 40 alone (antagonist dose 0), period 80-100 min) of the same compound?
The value was 675 ± 75 s.

Which “sum total duration” value ([3]; test compound 200 mg/kg i.p. at time 0, carbamazepine 20 mg/kg i.p. at time 40, period 0-20 min) does the source give for CCOC(OCC)P(=O)(O)CCCN [3-aminopropyl(diethoxymethyl)phosphinic acid] here?
Its value is 353 ± 53 s.

What about the “sum total duration” value ([3]; test compound 200 mg/kg i.p. at time 0, carbamazepine 20 mg/kg i.p. at time 40, period 20-40 min) of the same compound?
The value was 178 ± 37 s.

And the “sum total duration” value ([3]; test compound 200 mg/kg i.p. at time 0, carbamazepine 20 mg/kg i.p. at time 40, period 40-60 min)?
Its value is 173 ± 78 s.

And the “sum total duration” value ([3]; test compound 200 mg/kg i.p. at time 0, carbamazepine 20 mg/kg i.p. at time 40, period 60-80 min)?
The value was 70 ± 64 s.

What about the “sum total duration” value ([3]; test compound 200 mg/kg i.p. at time 0, carbamazepine 20 mg/kg i.p. at time 40, period 80-100 min) of the same compound?
Its value is 18 ± 17 s.

What about the “sum total duration” value ([3]; test compound 400 mg/kg i.p. at time 0, carbamazepine 20 mg/kg i.p. at time 40, period 0-20 min) of the same compound?
Its value is 115 ± 43 s.

What about the “sum total duration” value ([3]; test compound 400 mg/kg i.p. at time 0, carbamazepine 20 mg/kg i.p. at time 40, period 20-40 min) of the same compound?
The value was 93 ± 71 s.

What about the “sum total duration” value ([3]; test compound 400 mg/kg i.p. at time 0, carbamazepine 20 mg/kg i.p. at time 40, period 40-60 min) of the same compound?
Its value is 23 ± 14 s.

And the “sum total duration” value ([3]; test compound 400 mg/kg i.p. at time 0, carbamazepine 20 mg/kg i.p. at time 40, period 60-80 min)?
Its value is 29 ± 29 s.

What about the “sum total duration” value ([3]; test compound 400 mg/kg i.p. at time 0, carbamazepine 20 mg/kg i.p. at time 40, period 80-100 min) of the same compound?
Its value is 9 ± 9 s.

And the “sum total duration” value ([2]; test compound 200 mg/kg i.p. at time 0, phenytoin 20 mg/kg i.p. at time 40, period 0-20 min)?
Its value is 394 ± 87 s.

What about the “sum total duration” value ([2]; test compound 200 mg/kg i.p. at time 0, phenytoin 20 mg/kg i.p. at time 40, period 20-40 min) of the same compound?
Its value is 172 ± 64 s.

And the “sum total duration” value ([2]; test compound 200 mg/kg i.p. at time 0, phenytoin 20 mg/kg i.p. at time 40, period 40-60 min)?
The value was 124 ± 85 s.

What about the “sum total duration” value ([2]; test compound 200 mg/kg i.p. at time 0, phenytoin 20 mg/kg i.p. at time 40, period 60-80 min) of the same compound?
Its value is 239 ± 70 s.

What about the “sum total duration” value ([2]; test compound 200 mg/kg i.p. at time 0, phenytoin 20 mg/kg i.p. at time 40, period 80-100 min) of the same compound?
The value was 95 ± 37 s.

And the “sum total duration” value ([2]; test compound 400 mg/kg i.p. at time 0, phenytoin 20 mg/kg i.p. at time 40, period 0-20 min)?
The value was 139 ± 61 s.

What about the “sum total duration” value ([2]; test compound 400 mg/kg i.p. at time 0, phenytoin 20 mg/kg i.p. at time 40, period 20-40 min) of the same compound?
The value was 48 ± 40 s.

And the “sum total duration” value ([2]; test compound 400 mg/kg i.p. at time 0, phenytoin 20 mg/kg i.p. at time 40, period 40-60 min)?
The value was 31 ± 31 s.

And the “sum total duration” value ([2]; test compound 400 mg/kg i.p. at time 0, phenytoin 20 mg/kg i.p. at time 40, period 60-80 min)?
The value was 56 ± 53 s.

What about the “sum total duration” value ([2]; test compound 400 mg/kg i.p. at time 0, phenytoin 20 mg/kg i.p. at time 40, period 80-100 min) of the same compound?
Its value is 42 ± 39 s.

What about the “sum total duration” value ([4]; test compound 200 mg/kg i.p. at time 0, Vigabatrin 20 mg/kg i.p. at time 160, period 240-260 min) of the same compound?
Its value is 213 ± 52 s.

What about the “sum total duration” value ([4]; test compound 200 mg/kg i.p. at time 0, Vigabatrin 20 mg/kg i.p. at time 160, period 260-280 min) of the same compound?
Its value is 249 ± 57 s.

And the “sum total duration” value ([4]; test compound 400 mg/kg i.p. at time 0, Vigabatrin 20 mg/kg i.p. at time 160, period 240-260 min)?
The value was 44 ± 13 s.

What about the “sum total duration” value ([4]; test compound 400 mg/kg i.p. at time 0, Vigabatrin 20 mg/kg i.p. at time 160, period 260-280 min) of the same compound?
Its value is 28 ± 8 s.

For CCC1(c2ccccc2)C(=O)NC(=O)NC1=O [Phenobarbital], which “effect … (in words)” value ([1]; 20 mg/kg) is on record?
The value was “ineffective”.

Which minimal effective dose [1] does the source give for CCC1(C)CC(=O)NC1=O (stereo not shown) [ethosuximide] here?
Its minimal effective dose is ≥ 25 mg/kg.

CN1C(=O)CN=C(c2ccccc2)c2cc(Cl)ccc21 [diazepam] was tested. Which minimal effective dose [1] did it give?
The minimal effective dose was ≥ 0.5 mg/kg.

How did the “concentration that inhibits epilepsy-like discharges of pyramidal cells” value [5] turn out when NCC(CC(=O)O)c1ccc(Cl)cc1 (stereo not shown) [baclofen] was run?
Its value is 6 µM.

Which “sum total duration” value ([4]; Vigabatrin 20 mg/kg i.p. at time 160 alone (antagonist dose 0), period 240-260 min) does the source give for C=CC(N)CCC(=O)O (stereo not shown) [Vigabatrin®, Vigabatrin, reference compound] here?
The value was 875 ± 63 s.

What about the “sum total duration” value ([4]; Vigabatrin 20 mg/kg i.p. at time 160 alone (antagonist dose 0), period 260-280 min) of the same compound?
The value was 938 ± 65 s.

With CN1C(=O)OC(C)(C)C1=O [trimethadione] as the compound, how does the minimal effective dose [1] read?
Its minimal effective dose is ≥ 50 mg/kg.

Source: patent US5229379A, “Certain N-substituted-amino-alkane phosphinic acid derivatives having anti-epileptic properties” (priority 1990, dated 1993)
